Experimental data as given in PubChem BioAssay AID2060890 (Molecular Pharmacology Branch, DTP, NCI, 2025).
One block for each molecule: values may come before it.

Test system: LG0703-F948-PDC complex spheroid viability
Assay: Anticancer human tumor LG0703-F948-PDC patient-derived lung adenocarcinoma cell line growth inhibition [RAS]
Details: for IC50: curve of first compound; for viability, T/C: stronger effect = lower value
Excerpt: RAS pathway inhibitors in Combinations in Complex Spheroids
A high-throughput screen of multi-cell type tumor spheroids was designed to identify active combinations of RAS pathway inhibitors and targeted small molecules. Complex spheroids include a stromal component modeled by human endothelial cells (HUVEC) and fibroblasts modeled by human mesenchymal stem cells (MSCs). The concentration ranges selected for each drug and investigational agent were based upon clinically achievable concentrations if the clinical Cmax of the agent was known.
Compounds. The drugs and investigational agents: abemaciclib (NSC768073), cobimetinib (NSC768068), divarasib (GDC6063, NSC841802), docetaxel (NSC628503), GDC-1971 (RLY-1971, NSC841576), gemcitabine (NSC613327), inavolisib (NSC800729), ipatasertib (NSC767898), KB-0742 (NSC834161), MRTX-1133 (NSC836407), osimertinib (NSC779217), RMC-4630 (NSC839698), RMC-6236 (NSC851965), RMC-6291 (NSC852671), Ro-3306 (NSC812927), sapanisertib (NSC764658), SN-38 (NSC673596), staurosporine (NSC755774), SY5609 (NSC837396), and tovorafenib (DAY101, NSC766906), were obtained from the National Cancer Institute (NCI) Developmental Therapeutics Program Chemical Repository. The FDA-approved anticancer drug set is available from the NCI Developmental Therapeutics Program. […] The stock solutions were prepared in dimethyl sulfoxide (DMSO, Sigma-Aldrich, St. Louis, MO, cat. D2650) at 800-fold the tested concentration and stored at -70 degrees C prior to their use. All drugs and investigational agents were tested over a range starting from a high concentration at or near the clinical Cmax and decreasing in half-log increments. If the clinical Cmax for an agent had not been determined, the highest concentration tested was 10 microM.
Cell Culture. All cells were maintained in an incubator at 37 degrees C and 5% CO2 with 95% humidity. The PDC lines were cultured according to standard operating procedures established by the NCI PDMR. All PDCs were thawed and cultured in Matrigel-coated flasks prepared with a working solution of 1X Ham's F-12 nutrient mix, without supplementation (Invitrogen, Waltham, MA, cat. 11765054), 100 U/mL penicillin-streptomycin (Invitrogen, cat. 15140122), and 2.5% Matrigel (Corning Inc., Corning, NY, cat. 354248) for the first three passages. The 362531-283-R-J2-PDC and 782815-120-R-J1-PDC lines were cultured in 6C/Colon 1B media, which includes advanced DMEM/F-12 (Thermo Fisher Scientific, cat. 12634028), 10 mM HEPES (Thermo Fisher Scientific, cat. 15630080), 1X GlutaMAX supplement (Thermo Fisher Scientific, cat. 35050061), 0.1 mg/mL primocin (InvivoGen, San Diego, CA, cat. ant-pm-2), 10% defined fetal bovine serum, heat inactivated (HyClone Laboratories Inc., Logan, UT, cat. SH30070.03HI), 50% L-WRN conditioned media (ATCC, cat. CRL-3276), 1.25 mM N-Acetyl-L-cysteine (Sigma-Aldrich, cat. A9165), 10 mM nicotinamide (Sigma-Aldrich, cat. N0636), 1X B-27 supplement (Thermo Fisher Scientific, cat. 17504044), 1X N-2 supplement (Thermo Fisher Scientific, cat. 17502048), 50 ng/mL human EGF (Thermo Fisher Scientific, cat. PHG0311), and 10 microM Y-27632 dihydrochloride (Tocris Bioscience, cat. 1254). The K12877-001-R-J1-PDC line was cultured in 6I media, which includes all 6C/Colon 1B media plus 10 ng/mL human FGF-10 (PeproTech, cat. 100-26), 1 ng/mL human FGF-2 (PeproTech, cat. 100-18B), 1 µM prostaglandin E2 (Tocris Bioscience, cat. 2296), […] hydrocortisone (Sigma-Aldrich, cat. H4001), and […] bovine insulin (Sigma-Aldrich, cat. I6634). The K86415-001-R-J1-PDC line was cultured in 6D media, which includes all 6C/Colon 1B media components minus the L-WRN conditioned media. The 485176-168-R4-J1-PDC was cultured in PANC media, which includes all 6C/Colon 1B media plus 100 ng/mL human FGF-10 (PeproTech, cat. 100-26), 500 nM SB-431542 (Selleckchem, cat. S1067), and 10 nM gastrin (Tocris Bioscience, cat. 3006). […]

[1] = second compound 0.0316 µM, first compound 0.0316 µM
[2] = second compound 0.0316 µM, first compound 0.1 µM
[3] = second compound 0.0316 µM, first compound 0.316 µM
[4] = second compound 0.0316 µM, first compound 1 µM
[5] = second compound 0.1 µM, first compound 0.0316 µM
[6] = second compound 0.1 µM, first compound 0.1 µM
[7] = second compound 0.1 µM, first compound 0.316 µM
[8] = second compound 0.1 µM, first compound 1 µM
[9] = second compound 0.316 µM, first compound 0.0316 µM
[10] = second compound 0.316 µM, first compound 0.1 µM
[11] = second compound 0.316 µM, first compound 0.316 µM
[12] = second compound 0.316 µM, first compound 1 µM
[13] = second compound 1 µM, first compound 0.0316 µM
[14] = second compound 1 µM, first compound 0.1 µM
[15] = second compound 1 µM, first compound 0.316 µM
[16] = second compound 1 µM, first compound 1 µM
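Throughout, for viability, T/C: 100% = DMSO vehicle wells.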

IC50 (second compound 0.0316 µM): > 1000 nM | IC50 (second compound 0.1 µM): > 1000 nM | IC50 (second compound 0.316 µM): > 1000 nM | IC50 (second compound 1 µM): > 1000 nM | IC50 (second compound 3.16 µM): > 1000 nM | IC50 (second compound 10 µM): 7.25 nM
Structure (SMILES): CCN1CCN(Cc2ccc(Nc3ncc(F)c(-c4cc(F)c5nc(C)n(C(C)C)c5c4)n3)nc2)CC1 + C#Cc1c(F)ccc2cc(O)cc(-c3ncc4c(N5CC6CCC(C5)N6)nc(OCC56CCCN5CC(F)C6)nc4c3F)c12
viability, T/C (second compound 0.0316 µM, first compound 0.00316 µM): 114% | viability, T/C (second compound 0.0316 µM, first compound 0.01 µM): 84% | viability, T/C [1]: 78.3% | viability, T/C [2]: 92.2% | viability, T/C [3]: 82.7% | viability, T/C [4]: 79.8% | viability, T/C (second compound 0.1 µM, first compound 0.00316 µM): 119% | viability, T/C (second compound 0.1 µM, first compound 0.01 µM): 90.3% | viability, T/C [5]: 92.1% | viability, T/C [6]: 90.5% | viability, T/C [7]: 74% | viability, T/C [8]: 69.7% | viability, T/C (second compound 0.316 µM, first compound 0.00316 µM): 103% | viability, T/C (second compound 0.316 µM, first compound 0.01 µM): 99.5% | viability, T/C [9]: 84.5% | viability, T/C [10]: 81.1% | viability, T/C [11]: 75.5% | viability, T/C [12]: 70% | viability, T/C (second compound 1 µM, first compound 0.00316 µM): 84% | viability, T/C (second compound 1 µM, first compound 0.01 µM): 77.7% | viability, T/C [13]: 68.5% | viability, T/C [14]: 68.7% | viability, T/C [15]: 77.6% | viability, T/C [16]: 64.1% | viability, T/C (second compound 3.16 µM, first compound 0.00316 µM): 73.2% | viability, T/C (second compound 3.16 µM, first compound 0.01 µM): 71.9% | viability, T/C (second compound 3.16 µM, first compound 0.0316 µM): 56.8% | viability, T/C (second compound 3.16 µM, first compound 0.1 µM): 57% | viability, T/C (second compound 3.16 µM, first compound 0.316 µM): 71.3% | viability, T/C (second compound 3.16 µM, first compound 1 µM): 45% | viability, T/C (second compound 10 µM, first compound 0.00316 µM): 62.5% | viability, T/C (second compound 10 µM, first compound 0.01 µM): 44.3% | viability, T/C (second compound 10 µM, first compound 0.0316 µM): 47.7% | viability, T/C (second compound 10 µM, first compound 0.1 µM): 47.5% | viability, T/C (second compound 10 µM, first compound 0.316 µM): 49.5% | viability, T/C (second compound 10 µM, first compound 1 µM): 36.9%

Structure (SMILES): Nc1ccn(C2OC(CO)C(O)C2(F)F)c(=O)n1 (centres undefined)
viability, T/C (compound 0.00316 µM): 73.4% [middle of 4 runs] | viability, T/C (compound 0.0316 µM): 38.3% [middle of 4 runs] | viability, T/C (compound 0.1 µM): 37.3% [middle of 4 runs] | viability, T/C (compound 0.316 µM): 37.3% [middle of 4 runs] | viability, T/C (compound 1 µM): 32.1% [middle of 4 runs]

IC50 (second compound 0.00316 µM): < 31.6 nM | IC50 (second compound 0.01 µM): < 31.6 nM | IC50 (second compound 0.0316 µM): < 31.6 nM | IC50 (second compound 0.1 µM): < 31.6 nM | IC50 (second compound 0.316 µM): < 31.6 nM | IC50 (second compound 1 µM): < 31.6 nM
Structure (SMILES): CC(=O)OC12COC1CC(O)C1(C)C(=O)C(O)C3=C(C)C(OC(=O)C(O)C(NC(=O)OC(C)(C)C)c4ccccc4)CC(O)(C(OC(=O)c4ccccc4)C21)C3(C)C (centres undefined) + C=CC(=O)N1CCN(c2nc(OCC3CCCN3C)nc3c(F)c(-c4nc(N)cc(C)c4C(F)(F)F)c(Cl)cc23)C(C)C1
viability, T/C (second compound 0.00316 µM, first compound 0.0316 µM): 26.8% | viability, T/C (second compound 0.00316 µM, first compound 0.1 µM): 25.4% | viability, T/C (second compound 0.00316 µM, first compound 0.316 µM): 22.2% | viability, T/C (second compound 0.00316 µM, first compound 1 µM): 23.7% | viability, T/C (second compound 0.00316 µM, first compound 3.16 µM): 29.5% | viability, T/C (second compound 0.00316 µM, first compound 10 µM): 27.1% | viability, T/C (second compound 0.01 µM, first compound 0.0316 µM): 23.1% | viability, T/C (second compound 0.01 µM, first compound 0.1 µM): 24.4% | viability, T/C (second compound 0.01 µM, first compound 0.316 µM): 26.5% | viability, T/C (second compound 0.01 µM, first compound 1 µM): 23.5% | viability, T/C (second compound 0.01 µM, first compound 3.16 µM): 30.9% | viability, T/C (second compound 0.01 µM, first compound 10 µM): 27.5% | viability, T/C [1]: 28.5% | viability, T/C [2]: 26.2% | viability, T/C [3]: 26.1% | viability, T/C [4]: 30.7% | viability, T/C (second compound 0.0316 µM, first compound 3.16 µM): 22.3% | viability, T/C (second compound 0.0316 µM, first compound 10 µM): 29% | viability, T/C [5]: 22.1% | viability, T/C [6]: 26.4% | viability, T/C [7]: 28.6% | viability, T/C [8]: 28.8% | viability, T/C (second compound 0.1 µM, first compound 3.16 µM): 27.4% | viability, T/C (second compound 0.1 µM, first compound 10 µM): 24.7% | viability, T/C [9]: 24.9% | viability, T/C [10]: 24% | viability, T/C [11]: 26.4% | viability, T/C [12]: 30.4% | viability, T/C (second compound 0.316 µM, first compound 3.16 µM): 28.1% | viability, T/C (second compound 0.316 µM, first compound 10 µM): 23.6% | viability, T/C [13]: 31.5% | viability, T/C [14]: 27.3% | viability, T/C [15]: 27.9% | viability, T/C [16]: 29.2% | viability, T/C (second compound 1 µM, first compound 3.16 µM): 33.5% | viability, T/C (second compound 1 µM, first compound 10 µM): 32%
